From patent US20210238162A1, “CHEMICAL COMPOUNDS” (GlaxoSmithKline Intellectual Property Development Limited, priority 2015, published 2021)
Structures can show the parent of a compound that is named as a salt. Where two headings read alike, the source gives them in different places.

Target: T1, haematopoietic prostaglandin D synthase (H-PGDS) (Homo sapiens, UniProt O60760)
T1 construct: Full length human H-PGDS cDNA (Invitrogen Ultimate ORF IOH13026) was amplified by PCR; made in house; host or cells: E. coli BL21 (DE3*), vector pET22b+
Test: H-PGDS RapidFire High Throughput Mass Spectrometry Assay
Format: biochemical
Experimental: The H-PGDS RapidFire™ mass spectrometric assay monitors conversion of prostaglandin H2 (PGH2) to prostaglandin D2 (PGD2) by haematopoietic prostaglandin D synthase (H-PGDS). In the assay format described here, the substrate (PGH2) is formed in situ by the action of cyclooxygenase-2 on arachidonic acid. This first step is set up to be fast, and generates a burst of PGH2 at ˜10 μM. The PGH2 is then further converted to PGD2 by the H-PGDS enzyme. […] Plates are then read on the RapidFire™ high throughput solid phase extraction system (Agilent) which incorporates a solid phase extraction step coupled to a triple quadrupole mass spectrometer (AB SCIEX). Relative levels of PGD2 and PGF2α, which acts as a surrogate for substrate, are measured and a percent conversion calculated.
Full length human H-PGDS cDNA (Invitrogen Ultimate ORF IOH13026) was amplified by PCR with the addition of a 5′ 6-His tag and TEV protease cleavage site. The PCR product was digested with Ndel and Xhol and ligated into pET22b+ (Merck Novagen®). Expression was carried out in E. coli strain BL21 (DE3*) using auto-induction Overnight Express™ Instant TB medium (Merck Novagen®) supplemented with 1% glycerol. The culture was first grown at 37° C. and the temperature was reduced to 25° C. when OD600 reached 2.0. Cells were harvested by centrifugation after a further 18 hr. 10 g of E. coli cell pellet was suspended to a total volume of 80 mL in lysis buffer (20 mM Tris-Cl pH 7.5, 300 mM NaCl, 20 mM imidazole, 5 mM β-mercaptoethanol, 10% glycerol). 1 mg/mL protease inhibitors (Protease Inhibitor Cocktail Set Ill, Merck Calbiochem®) and 1 mg/mL lysozyme were added to the cell suspension. The suspension was then sonicated for 5 min (UltraSonic Processor VCX 750, Cole-Parmer Instrument Co.) with a micro probe (50% amplitude, 10 sec on/off) and then centrifuged at 100,000 g for 90 min (at 4° C.). The supernatant was loaded onto a Ni-NTA HiTrap column (5 mL, GE Heathcare, pre-equilibrated in lysis buffer). The column was washed with 10 column volumes of lysis buffer and eluted with lysis buffer containing 500 mM imidazole. The pooled protein peak fractions were concentrated using a 10 kDa centrifugal filter at 3500 g and 4° C. (Amicon Ultra-15 centrifugal filter unit with Ultracel-10 membrane from Millipore). Further purification of the concentrated protein was carried out using gel filtration chromatography on a HiLoad 26/600 Superdex 75 preparative grade column (GE Healthcare Life Sciences) using 50 mM Tris pH 7.5, 50 mM NaCl, 1 mM dithiothreitol, 1 mM MgCl2. Fractions containing the protein were pooled, concentrated as described above, and stored at −80° C.
The full length human COX-2 gene (accession number L15326) was amplified by PCR to generate an EcoRI-HindIII fragment containing an in-frame FLAG tag. This was subcloned into pFastBac 1 (Invitrogen). The COX2 FLAG plasmid was recombined into the baculovirus genome according to the BAC-to-BAC protocol described by Invitrogen. Transfection into Spodoptera frugiperda (Sf9) insect cells was performed using Cellfectin (Invitrogen), according to the manufacturer's protocol. […] Recombinant virus was added at a Multiplicity of Infection (MOI) of 5 and the culture was allowed to continue for 3 days. Cells were harvested using a continuous feed centrifuge run at 2500 g at a rate of approximately 2 L/min with cooling. The resultant cell slurry was re-centrifuged in pots (2500 g, 20 min, 4° C.) and the cell paste was stored at −80° C. […] The suspension was sonicated in 500 mL batches for 8×5 seconds at 10 u amplitude with the medium tip of an MSE probe sonicator and subsequently incubated at 4° C. for 90 min with gentle stirring. The lysate was centrifuged at 12000 rpm for 45 min at 4° C. in a Sorvall SLA1500 rotor. The supernatant (1400 mL) was added to 420 mL of 20 mM Tris-Cl pH 7.4, 150 mM NaCl, 0.1 mM EDTA to reduce the concentration of n-octyl-β-D-glucopyranoside to 1% w/v.

[1] = H-PGDS RapidFire MS assay, mean pIC50, read-out: Potency Range (mean pIC50) (converted)
[2] = in at least one experimental run, read-out: H-PGDS pIC50 value (converted)

T1 sequence (O60760 whole entry): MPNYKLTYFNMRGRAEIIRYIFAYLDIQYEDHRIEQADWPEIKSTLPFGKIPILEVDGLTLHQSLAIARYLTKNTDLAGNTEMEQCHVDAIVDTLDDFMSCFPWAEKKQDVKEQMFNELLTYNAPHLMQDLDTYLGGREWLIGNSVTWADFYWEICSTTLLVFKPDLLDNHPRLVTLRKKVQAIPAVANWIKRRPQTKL

SMILES | IC50 [1] | IC50 [2]
CC1C[C@H](NC(=O)c2cnc3cc(OC(F)F)c(Cl)cc3c2)C(=O)N1 (mixture of isomers) [Example 133, 6-Chloro-7-(difluoromethoxy)-N-((3S)-5-methyl-2-oxopyrrolidin-3-yl)quinoline-3-carboxamide] | 10 to 79.4 nM | –
CC1CCN1c1cc2ncc(C(=O)N[C@H]3CCNC3=O)cc2cc1F (mixture of isomers) [Example 171, 6-Fluoro-7-(2-methylazetidin-1-yl)-N—((S)-2-oxopyrrolidin-3-yl)quinoline-3-carboxamide] | 10 to 79.4 nM | –
O=C(N[C@@H]1CC[C@@H](C(O)C(F)(F)F)OC1)c1cnc2cc(OC(F)F)ccc2c1 (mixture of isomers) [Example 17, Racemic 7-(Difluoromethoxy)-N-((3R,6S)-6-(2,2,2-trifluoro-1-hydroxyethyl)tetrahydro-2H-pyran-3-yl)quinoline-3-carboxamide] | 10 to 79.4 nM | –
CC(C)(O)[C@@H]1CC[C@@H](NC(=O)c2cnc3cc(OC(F)F)ccc3c2)CO1 (racemic) [Example 22, Racemic 7-(Difluoromethoxy)-N-((3s,6r)-6-(2-hydroxypropan-2-yl)tetrahydro-2H-pyran-3-yl)quinoline-3-carboxamide] | 10 to 79.4 nM | –
O=C(NC1CC2(CC(NCC(F)(F)F)C2)C1)c1cnc2cc(OC(F)F)c(F)cc2c1 (racemic) [Example 61, 7-(Difluoromethoxy)-6-fluoro-N-(6-((2,22-trifluoroethyl)amino)spiro[3.3]heptan-2-yl)quinoline-3-carboxamide] | 10 to 79.4 nM | –
CC(NC[C@H]1CC[C@H](NC(=O)c2cnc3cc(OC(F)F)c(F)cc3c2)CC1)C(F)F (mixture of isomers) [Example 75, 7-(Difluoromethoxy)-N-(trans-4-(((1,1-difluoropropan-2-yl)amino)methyl)cyclohexyl)-6-fluoroquinoline-3-carboxamide] | 10 to 79.4 nM | –
CC(C)(O)[C@@H]1CC[C@@H](NC(=O)c2cnc3cc(OC(F)F)c(Cl)cc3c2)CO1 (racemic) [Example 124, Racemic 6-chloro-7-(difluoromethoxy)-N-((3r,6s)-6-(2-hydroxypropan-2-yl)tetrahydro-2H-pyran-3-yl)quinoline-3-carboxamide] | < 10 nM | –
CC(N[C@H]1CC[C@H](NC(=O)c2cnc3cc(OC(F)F)c(Cl)cc3c2)CC1)C(F)F (mixture of isomers) [Example 125, 6-Chloro-7-(difluoromethoxy)-N-(trans-4-((1,1-difluoropropan-2-yl)amino)cyclohexyl)quinoline-3-carboxamide] | < 10 nM | –
CN(C)C(=O)[C@@H]1CC[C@@H](NC(=O)c2cnc3cc(OC(F)F)c(Cl)cc3c2)CO1 (racemic) [Example 126, Racemic 6-Chloro-7-(difluoromethoxy)-N-((3r,6s)-6-(dimethylcarbamoyl)tetrahydro-2H-pyran-3-yl)quinoline-3-carboxamide] | 10 to 79.4 nM | –
C[C@]1(O)CC[C@H](NC(=O)c2cnc3cc(OC(F)F)c(Cl)cc3c2)C1 (racemic) [Example 146, Racemic 6-Chloro-7-(difluoromethoxy)-N-((1S,3S)-3-hydroxy-3-methylcyclopentyl)quinoline-3-carboxamide] | 10 to 79.4 nM | –
CC(N[C@H]1CC[C@H](NC(=O)c2cnc3cc(OC(F)F)c(Br)cc3c2)CC1)C(F)F (mixture of isomers) [Example 156, 6-Bromo-7-(difluoromethoxy)-N-(trans-4-((1,1-difluoropropan-2-yl)amino)cyclohexyl)quinoline-3-carboxamide] | < 10 nM | –
CC1CCN1c1cc2ncc(C(=O)N[C@H]3CC[C@H](C(C)(C)O)CC3)cc2cc1F (mixture of isomers) [Example 170, 6-Fluoro-N-(trans-4-(2-hydroxypropan-2-yl)cyclohexyl)-7-(2-methylazetidin-1-yl)quinoline-3-carboxamide] | 10 to 79.4 nM | –
O=C(N[C@H]1CC[C@H]([C@@H](O)C(F)(F)F)CC1)c1cnc2cc(OC(F)F)ccc2c1 (single isomer, unassigned) [Example 20] | < 10 nM | 7.94 nM
O=C(N[C@H]1CC[C@H]([C@H](O)C(F)(F)F)CC1)c1cnc2cc(OC(F)F)ccc2c1 (single isomer, unassigned) [Example 21] | < 10 nM | –
O=C(NC1CCNC1=O)c1cnc2cc(OC(F)F)c(Cl)cc2c1 (stereo in doubt) [Example 117, (S)-6-Chloro-7-(difluoromethoxy)-N-(2-oxopyrrolidin-3-yl)quinoline-3-carboxamide, trifluoroacetate] | < 10 nM | –
CN(C)C(=O)[C@H]1CC[C@H](NC(=O)c2cnc3cc(OC(F)F)ccc3c2)CC1 [Example 5, 7-(Difluoromethoxy)-N-((trans)-4-(dimethylcarbamoyl)cyclohexyl)quinoline-3-carboxamide] | 10 to 79.4 nM | –
CS(=O)(=O)N1CCC(NC(=O)c2cnc3cc(OC(F)F)ccc3c2)CC1 [Example 7, 7-(Difluoromethoxy)-N-(1-(methylsulfonyl)piperidin-4-yl)quinoline-3-carboxamide] | 10 to 79.4 nM | –
Cc1cc(NC(=O)c2cnc3cc(OC(F)F)ccc3c2)[nH]n1 [Example 8, 7-(Difluoromethoxy)-N-(3-methyl-1H-pyrazol-5-yl)quinoline-3-carboxamide] | 10 to 79.4 nM | –
O=C1CC(NC(=O)c2cnc3cc(OC(F)F)ccc3c2)c2ccccc2N1 (stereo not shown) [Example 9, 7-(Difluoromethoxy)-N-(2-oxo-1,2,3,4-tetrahydroquinolin-4-yl)quinoline-3-carboxamide] | 10 to 79.4 nM | –
O=C(Nc1nccs1)c1cnc2cc(OC(F)F)ccc2c1 [Example 10, 7-(Difluoromethoxy)-N-(thiazol-2-yl)quinoline-3-carboxamide] | 10 to 79.4 nM | –
CC(C)(O)[C@H]1C[C@H](NC(=O)c2cnc3cc(OC(F)F)ccc3c2)C1 [Example 11, 7-(Difluoromethoxy)-N-(trans-3-(2-hydroxypropan-2-yl)cyclobutyl)quinoline-3-carboxamide] | 10 to 79.4 nM | –
CC(C)(O)CO[C@H]1CC[C@H](NC(=O)c2cnc3cc(OC(F)F)ccc3c2)CC1 [Example 12, 7-(Difluoromethoxy)-N-(trans-4-(2-hydroxy-2-methylpropoxy)cyclohexyl)quinoline-3-carboxamide] | 10 to 79.4 nM | –
CC(O)[C@H]1CC[C@H](NC(=O)c2cnc3cc(OC(F)F)ccc3c2)CC1 (stereo partly drawn) [Example 13, 7-(Difluoromethoxy)-N-(trans-4-(-1-hydroxyethyl)cyclohexyl)quinoline-3-carboxamide] | 10 to 79.4 nM | –
O=C(N[C@H]1CC[C@H](C(O)C2CC2)CC1)c1cnc2cc(OC(F)F)ccc2c1 (stereo partly drawn) [Example 14, N-(trans-4-(-Cyclopropyl(hydroxy)methyl)cyclohexyl)-7-(difluoromethoxy)quinoline-3-carboxamide] | < 10 nM | –
O=C(N[C@H]1CC[C@H](C(O)C(F)(F)F)CC1)c1cnc2cc(OC(F)F)ccc2c1 (stereo partly drawn) [Example 15, 7-(Difluoromethoxy)-N-(trans-4-(2,2,2-trifluoro-1-hydroxyethyl)cyclohexyl)quinoline-3-carboxamide] | < 10 nM | 7.94 nM
CC(O)CO[C@H]1CC[C@H](NC(=O)c2cnc3cc(OC(F)F)ccc3c2)CC1 (stereo partly drawn) [Example 16, 7-(Difluoromethoxy)-N-(trans-4-(2-hvdroxypropoxy)cyclohexyl)quinoline-3-carboxamide] | 10 to 79.4 nM | –
